ChEMBL document CHEMBL3259698, “Reductions in log P improved protein binding and clearance predictions enabling the prospective design of cannabinoid receptor (CB1) antagonists with desired pharmacokinetic properties” (J Med Chem, 2013)
In brackets after ≈: the same amount, converted by molar mass.

Assays:
[1] = Elimination half life in iv dosed cynomolgus monkey; format: ADME, organism-based, Macaca fascicularis; conditions: in vivo, read-out: beta t1/2 (converted)
[2] = Aqueous solubility of the compound; format: physicochemical; conditions: buffer
Cytochrome P450 2C9 = Cytochrome P450 2C9 (Homo sapiens, UniProt P11712); assay: Inhibition of human recombinant CYP2C9; format: ADME
[3] = Terminal half life in Sprague-Dawley rat at 3 mg/kg, iv; format: ADME, organism-based; design: dose 3 mg/kg, route intravenous; conditions: in vivo, read-out: beta t1/2 (converted)
Cytochrome P450 3A4 = Cytochrome P450 3A4 (Homo sapiens, UniProt P08684); assay: Inhibition of human recombinant CYP3A4
Cannabinoid receptor 1 = Cannabinoid receptor 1 (Homo sapiens, UniProt P21554); assay: Binding affinity to human CB1 receptor expressed in CHO cells by radioligand displacement based scintillation counting analysis; format: cell-based
Cytochrome P450 2C19 = Cytochrome P450 2C19 (Homo sapiens, UniProt P33261); assay: Inhibition of human recombinant CYP2C19; format: ADME
[4] = Elimination half life in iv dosed dog; format: ADME, organism-based, Canis lupus familiaris; conditions: in vivo, read-out: beta t1/2 (converted)
[5] = Lipophilicity, log P of the compound by HPLC analysis; format: physicochemical
Liver microsome = assay: Clearance in rat liver microsomes at 1 to 3 uM after 20 mins by LC/MS/MS analysis
[6] = Fraction unbound in rat plasma at 10 uM by equilibrium dialysis method; format: ADME, cell-free
[7] = Drug excretion in bile duct-cannulated rat bile assessed as M + 2O-2H and M + O + glucuronide level at 5 mg/kg, po after 48 hrs; format: ADME, organism-based; design: dose 5 mg/kg, route oral; conditions: in vivo
[8] = Metabolic stability in rat hepatocytes assessed as compound remaining at 0.5 to 3 uM after 2 hrs by LC-MS/MS analysis; format: ADME, cell-based, Hepatocyte; conditions: read-out: Stability
[9] = Oral bioavailability in cynomolgus monkey; format: ADME, organism-based, Macaca fascicularis; conditions: in vivo
[10] = Drug excretion in bile duct-cannulated rat bile at 5 mg/kg, po after 48 hrs; format: ADME, organism-based; design: dose 5 mg/kg, route oral; conditions: read-out: Drug excretion
[11] = Drug excretion in bile duct-cannulated rat at 5 mg/kg, po; format: ADME, organism-based; design: dose 5 mg/kg, route oral; conditions: read-out: Drug excretion
Rattus norvegicus [12] = assay: Antiobesity activity in rat assessed as reduction in body weight at 10 mg/kg after 4 days; format: functional; design: scale not given: the % may be the effect or the level left
Rattus norvegicus [13] = assay: Antiobesity activity in diet-induced obese rat as reduction in body weight at 1 mg/kg, po after 28 days; format: functional; design: scale not given: the % may be the effect or the level left
[14] = Oral bioavailability in dog; format: ADME, organism-based, Canis lupus familiaris; conditions: in vivo
[15] = Fraction unbound in human plasma at 10 uM by equilibrium dialysis method; format: ADME, cell-free
Rattus norvegicus [16] = assay: Drug excretion in bile duct-cannulated rat assessed as M + 2O-2H level at 5 mg/kg, po; format: ADME, organism-based; design: dose 5 mg/kg, route oral; conditions: in vivo
[17] = Drug excretion in bile duct-cannulated rat urine assessed as M + 2O-2H and M + O + glucuronide level at 5 mg/kg, po after 48 hrs; format: ADME, organism-based; design: dose 5 mg/kg, route oral; conditions: in vivo
[18] = Oral bioavailability in Sprague-Dawley rat; format: ADME, organism-based; conditions: in vivo
Rattus norvegicus [19] = assay: Antiobesity activity in diet-induced obese rat as reduction in body weight at 10 mg/kg, po after 28 days; format: functional; design: scale not given: the % may be the effect or the level left
Rattus norvegicus [20] = assay: Antiobesity activity in diet-induced obese rat as reduction in body weight at 3 mg/kg, po after 28 days; format: functional; design: scale not given: the % may be the effect or the level left
Rattus norvegicus [21] = assay: Drug excretion in bile duct-cannulated rat assessed as M + O + glucuronide level at 5 mg/kg, po; format: ADME, organism-based; design: dose 5 mg/kg, route oral; conditions: in vivo
Rattus norvegicus [22] = assay: Antiobesity activity in rat assessed as reduction in body weight at 3 mg/kg after 4 days; format: functional; design: scale not given: the % may be the effect or the level left
[23] = Elimination half life in human; format: ADME, organism-based; conditions: in vivo, read-out: beta t1/2 (converted)
Rattus norvegicus [24] = assay: Antiobesity activity in rat assessed as reduction in body weight at 10 mg/kg, qd after 4 days; format: functional; design: scale not given: the % may be the effect or the level left

Sequence of Cytochrome P450 2C9 (P11712 whole entry): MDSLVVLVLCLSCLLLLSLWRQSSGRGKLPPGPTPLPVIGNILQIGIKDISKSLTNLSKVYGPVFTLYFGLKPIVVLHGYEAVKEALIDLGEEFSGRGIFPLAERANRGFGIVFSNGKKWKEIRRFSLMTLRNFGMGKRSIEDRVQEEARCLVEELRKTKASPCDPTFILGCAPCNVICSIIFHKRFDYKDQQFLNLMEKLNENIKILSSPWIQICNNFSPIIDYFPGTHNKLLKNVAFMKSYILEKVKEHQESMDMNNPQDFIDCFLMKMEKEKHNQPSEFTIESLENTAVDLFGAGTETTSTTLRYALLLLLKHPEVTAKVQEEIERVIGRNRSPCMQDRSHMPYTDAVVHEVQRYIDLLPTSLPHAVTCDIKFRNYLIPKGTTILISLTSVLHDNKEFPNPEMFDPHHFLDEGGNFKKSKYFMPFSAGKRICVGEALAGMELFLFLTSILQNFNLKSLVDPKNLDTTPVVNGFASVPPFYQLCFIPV
Sequence of Cytochrome P450 2C19 (P33261 whole entry): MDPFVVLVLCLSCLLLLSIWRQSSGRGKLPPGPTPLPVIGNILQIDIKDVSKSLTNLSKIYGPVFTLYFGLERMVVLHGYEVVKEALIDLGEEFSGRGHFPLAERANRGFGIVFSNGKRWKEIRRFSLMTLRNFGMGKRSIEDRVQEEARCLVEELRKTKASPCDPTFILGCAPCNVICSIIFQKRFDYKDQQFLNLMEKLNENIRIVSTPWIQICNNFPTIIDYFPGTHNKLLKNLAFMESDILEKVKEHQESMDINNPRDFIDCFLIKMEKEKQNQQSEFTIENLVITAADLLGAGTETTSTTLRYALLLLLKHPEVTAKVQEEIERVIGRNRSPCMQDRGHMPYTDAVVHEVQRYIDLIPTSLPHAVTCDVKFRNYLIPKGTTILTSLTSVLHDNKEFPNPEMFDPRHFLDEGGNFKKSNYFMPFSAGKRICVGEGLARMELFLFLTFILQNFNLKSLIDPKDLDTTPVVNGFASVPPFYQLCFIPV
Sequence of Cytochrome P450 3A4 (P08684 whole entry): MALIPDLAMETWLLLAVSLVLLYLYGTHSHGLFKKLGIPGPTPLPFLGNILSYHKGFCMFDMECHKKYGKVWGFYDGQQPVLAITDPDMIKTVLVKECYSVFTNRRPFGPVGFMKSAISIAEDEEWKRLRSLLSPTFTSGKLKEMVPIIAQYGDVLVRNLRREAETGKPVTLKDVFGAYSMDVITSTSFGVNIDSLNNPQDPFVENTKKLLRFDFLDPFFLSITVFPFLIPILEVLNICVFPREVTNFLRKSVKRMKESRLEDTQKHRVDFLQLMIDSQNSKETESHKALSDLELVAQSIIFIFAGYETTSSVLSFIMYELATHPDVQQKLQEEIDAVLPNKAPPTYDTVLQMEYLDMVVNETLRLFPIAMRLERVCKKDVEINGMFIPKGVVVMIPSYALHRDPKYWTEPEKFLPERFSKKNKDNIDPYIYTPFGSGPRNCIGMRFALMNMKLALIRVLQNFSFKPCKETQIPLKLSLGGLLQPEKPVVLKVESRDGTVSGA
Sequence of Cannabinoid receptor 1 (P21554 whole entry): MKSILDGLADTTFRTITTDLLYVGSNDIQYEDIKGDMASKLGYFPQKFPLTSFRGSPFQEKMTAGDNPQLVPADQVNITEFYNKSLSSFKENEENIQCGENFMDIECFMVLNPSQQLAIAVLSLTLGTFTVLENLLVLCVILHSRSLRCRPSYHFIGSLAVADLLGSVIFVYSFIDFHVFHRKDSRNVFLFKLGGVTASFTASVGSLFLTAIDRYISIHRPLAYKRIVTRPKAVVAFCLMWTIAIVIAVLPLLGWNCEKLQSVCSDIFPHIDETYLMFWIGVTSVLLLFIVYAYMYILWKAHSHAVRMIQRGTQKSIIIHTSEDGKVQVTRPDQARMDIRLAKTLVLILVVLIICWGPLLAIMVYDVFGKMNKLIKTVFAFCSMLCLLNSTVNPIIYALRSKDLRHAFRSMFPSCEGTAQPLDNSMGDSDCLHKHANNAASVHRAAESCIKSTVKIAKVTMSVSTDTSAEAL

## CCn1nc2c(-c3ccc(Cl)cc3)c(-c3ccc(C#N)cc3)c(=O)n(Cc3ccc(C(F)(F)F)nc3C)n2c1=O
[1]
  half-life: 40 h
[2]
  solubility: 3 µg/mL (≈ 5.31 µM)
Cytochrome P450 2C9
  IC50: > 40 µM
[3]
  half-life: 7 h
Cytochrome P450 3A4
  IC50: > 40 µM
Cannabinoid receptor 1
  Ki: 0.0014 µM
Cytochrome P450 2C19
  IC50: > 40 µM
[4]
  half-life: 70 h
[5]
  logP: 4.6

## CCn1nc2c(-c3ccc(Cl)cc3)c(-c3ccc(C#N)c(C)c3)c(=O)n(Cc3ccc(C(F)(F)F)nc3C)n2c1=O
Liver microsome
  CLH: 0 nmol/min/mg
Cannabinoid receptor 1
  Ki: 0.003 µM
[5]
  logP: 5

## CCc1nc(C(F)(F)F)ccc1Cn1c(=O)c(-c2ccc(C#N)cc2)c(-c2ccc(Cl)cc2)c2nn(CC)c(=O)n21
Liver microsome
  CLH: 0.152 nmol/min/mg
Cannabinoid receptor 1
  Ki: 0.0016 µM
[5]
  logP: 5

## Cc1nc(C(F)(F)F)ccc1Cn1c(=O)c(-c2ccc(C#N)cc2)c(-c2ccc(Cl)cc2)c2nn(C(C)C)c(=O)n21
Liver microsome
  CLH: 0.014 nmol/min/mg
Cannabinoid receptor 1
  Ki: 0.0019 µM
[5]
  logP: 5.2

## CCn1nc2c(-c3ccc(Cl)cc3)c(-c3ccc(C#N)cc3)c(=O)n(Cc3ccc(C)cc3)n2c1=O
Cannabinoid receptor 1
  Ki: 0.012 µM
[5]
  logP: 5.2

## CCn1nc2c(-c3ccc(C)cc3)c(-c3ccc(C#N)cc3)c(=O)n(Cc3ccc(C(F)(F)F)nc3C)n2c1=O
Liver microsome
  CLH: 0.052 nmol/min/mg
Cannabinoid receptor 1
  Ki: 0.0029 µM
[5]
  logP: 4.6

## CCn1nc2c(-c3ccc(Cl)cc3)c(-c3ccc(C#N)cc3)c(=O)n(Cc3ccc(C#N)cc3)n2c1=O
[1]
  half-life: 8 h
Cannabinoid receptor 1
  Ki: 0.005 µM
[6]
  fraction unbound at 10 µM: 0.01
[4]
  half-life: 45 h
[5]
  logP: 4.2

## CCn1nc2c(-c3ccc(Cl)cc3)c(-c3ccc(CO)nc3)c(=O)n(Cc3ccc(C(F)(F)F)nc3C)n2c1=O
[1]
  half-life: 9 h
[3]
  half-life: 1.1 h
Cannabinoid receptor 1
  Ki: 0.005 µM
[6]
  fraction unbound at 10 µM: 0.09
[4]
  half-life: 7 h
[5]
  logP: 3.6

## CCn1nc2c(-c3ccc(Cl)cc3)c(-c3cnc(C)nc3)c(=O)n(Cc3ccc(C(F)(F)F)nc3C)n2c1=O
[1]
  half-life: 12 h
[2]
  solubility: 17 µg/mL (≈ 30.6 µM)
[7]
  Drug excretion: 76 %ID
Cytochrome P450 2C9
  IC50: > 40 µM
[8]
  remaining at 2 h, 3 µM: 5%
[9]
  bioavailability: 51%
[10]
  dose excreted at 48 h: 0.8%
[3]
  half-life: 5 h
[11]
  dose excreted: < 1%
Rattus norvegicus [12]
  Activity: 7.2%
Rattus norvegicus [13]
  Activity: 2.4%
Cytochrome P450 3A4
  IC50: > 40 µM
Cannabinoid receptor 1
  Ki: 0.0047 µM
[6]
  fraction unbound at 10 µM: 0.13
[14]
  bioavailability: 75%
[15]
  fraction unbound at 10 µM: 0.07
Cytochrome P450 2C19
  IC50: > 40 µM
Rattus norvegicus [16]
  Drug excretion: 36 %ID
[4]
  half-life: 42 h
[17]
  Drug excretion: 7 %ID
[5]
  logP: 3.8
[18]
  bioavailability: 73%
Rattus norvegicus [19]
  Activity: 10.2%
Rattus norvegicus [20]
  Activity: 4.1%
Rattus norvegicus [21]
  Drug excretion: 26 %ID
Rattus norvegicus [22]
  Activity: 2.8%

## CCn1nc2c(-c3ccc(Cl)cc3)c(-c3ccncc3F)c(=O)n(Cc3ccc(C(F)(F)F)nc3C)n2c1=O
Cytochrome P450 2C9
  IC50: 14 µM
Cytochrome P450 3A4
  IC50: 7 µM
Cannabinoid receptor 1
  Ki: 0.0032 µM
Cytochrome P450 2C19
  IC50: 5 µM
[5]
  logP: 4.3

## CCn1nc2c(-c3ccc(Cl)cc3)c(-c3cnn(C)c3)c(=O)n(Cc3ccc(C#N)cc3)n2c1=O
Cytochrome P450 2C9
  IC50: > 40 µM
Cytochrome P450 3A4
  IC50: 3.4 µM
Cannabinoid receptor 1
  Ki: 0.092 µM
Cytochrome P450 2C19
  IC50: > 40 µM
[5]
  logP: 3.8

## CCn1nc2c(-c3ccc(Cl)cc3)c(-c3cnc(N(C)C)nc3)c(=O)n(Cc3ccc(C#N)cc3)n2c1=O
Cytochrome P450 2C9
  IC50: > 40 µM
Cytochrome P450 3A4
  IC50: > 40 µM
Cannabinoid receptor 1
  Ki: 0.077 µM
Cytochrome P450 2C19
  IC50: > 40 µM
[5]
  logP: 4.3

## CCNC1(C(N)=O)CCN(c2ncnc3c2nc(-c2ccccc2Cl)n3-c2ccc(Cl)cc2)CC1 [OTENABANT]
[23]
  half-life: 120 h

## Cc1c(C(=O)NN2CCCCC2)nn(-c2ccc(Cl)cc2Cl)c1-c1ccc(Cl)cc1 [RIMONABANT]
Rattus norvegicus [24]
  Activity: 5%
[23]
  half-life: 216 h
Rattus norvegicus [19]
  Activity: 6.2%

## C[C@H](NC(=O)C(C)(C)Oc1ccc(C(F)(F)F)cn1)[C@@H](Cc1ccc(Cl)cc1)c1cccc(C#N)c1 [TARANABANT]
[23]
  half-life: 72 h
